{"source": "ChEMBL document CHEMBL1126674", "about": "“S-adenosylmethionine decarboxylase inhibitors: new aryl and heteroaryl analogues of methylglyoxal bis(guanylhydrazone)” (J Med Chem, 1993)", "note": "pIC50: −log10 of the molar value. Activity calls are given as the source filed them. The rule behind the calls is not given here.", "data": [{"target": "T1, Ornithine decarboxylase (Rattus norvegicus) (UniProt P09057)", "T1 sequence (whole entry)": "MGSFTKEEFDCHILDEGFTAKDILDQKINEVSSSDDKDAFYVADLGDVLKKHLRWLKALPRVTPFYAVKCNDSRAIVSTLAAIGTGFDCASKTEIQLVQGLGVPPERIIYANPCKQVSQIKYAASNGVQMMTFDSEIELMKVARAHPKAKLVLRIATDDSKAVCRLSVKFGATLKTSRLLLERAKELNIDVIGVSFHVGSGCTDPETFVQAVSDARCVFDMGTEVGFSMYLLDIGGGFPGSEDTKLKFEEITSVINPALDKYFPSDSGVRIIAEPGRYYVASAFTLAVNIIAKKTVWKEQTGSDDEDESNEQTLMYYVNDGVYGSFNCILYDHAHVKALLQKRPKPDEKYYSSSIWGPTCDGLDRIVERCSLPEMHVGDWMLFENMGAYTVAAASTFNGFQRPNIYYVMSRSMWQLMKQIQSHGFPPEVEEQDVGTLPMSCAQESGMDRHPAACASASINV", "assay": "Evaluated for inhibition of rat liver ornithine decarboxylase (ODC) at concentrations of 50 uM; No inhibition", "values": [{"smiles": "N=C(NN)N/N=C/c1cccc(C(=N)N)n1", "inhibition": "inactive"}, {"smiles": "CCCCNC(=N)N/N=C/c1cccc(C(=N)N)c1", "inhibition": "inactive"}, {"smiles": "N=C(N)N/N=C/c1nccc(C(=N)N)n1", "inhibition": "inactive"}, {"smiles": "N=C(N)c1cccc(/C=N/N=C(\\N)N/N=C/c2cccc(C(=N)N)c2)c1", "inhibition": "inactive"}, {"smiles": "N=C(NO)N/N=C/c1cccc(C(=N)N)n1", "inhibition": "inactive"}, {"smiles": "C/C(=N\\N=C(N)N)c1cccc(C(=N)N)c1", "inhibition": "inactive"}, {"smiles": "N=C(N)c1cccc(-c2cccc(C(=N)N)c2)c1", "inhibition": "inactive"}, {"smiles": "CC(/C=N/NC(=N)N)=N\\NC(=N)N", "note": "[MITOGUAZONE]", "inhibition": "inactive"}, {"smiles": "N=C(N)c1cc(-c2ccnc(C(=N)N)c2)ccn1", "inhibition": "inactive"}, {"smiles": "N=C(N)c1ccnc(-c2cc(C(=N)N)ccn2)c1", "inhibition": "inactive"}, {"smiles": "N=C(N/N=C/c1cccc(C(=N)N)n1)N/N=C/c1cccc(C(=N)N)n1", "inhibition": "inactive"}, {"smiles": "N=C(N)c1cccc(-c2cccc(C(=N)N)n2)n1", "inhibition": "inactive"}, {"smiles": "N=C(NO)N/N=C/c1cccc(C(=N)N)c1", "inhibition": "inactive"}, {"smiles": "N=C(N)N/N=C/c1cccc(C(N)=O)c1", "inhibition": "inactive"}, {"smiles": "N=C(N)N/N=C/c1ccnc(C(=N)N)n1", "inhibition": "inactive"}, {"smiles": "CC/C(=N\\N=C(N)N)c1cccc(C(=N)N)c1", "inhibition": "inactive"}, {"smiles": "N=C(N)N/N=C/c1cccc(C(=N)NO)n1", "inhibition": "inactive"}, {"smiles": "N=C(N)c1cccc(-c2ccnc(C(=N)N)n2)c1", "inhibition": "inactive"}, {"smiles": "N=C(NN)c1cccc(/C=N/N=C(N)N)n1", "inhibition": "inactive"}, {"smiles": "N=C(N)N/N=C/c1ccnc(C(=N)N)c1", "inhibition": "inactive"}, {"smiles": "N=C(N)N/N=C/c1cccc(C(=N)N)n1", "inhibition": "inactive"}, {"smiles": "N=C(N)N/N=C/c1cccc(C(=N)N)c1", "inhibition": "inactive"}, {"smiles": "CCCCNC(=N)c1cccc(/C=N/N=C(N)N)c1", "inhibition": "inactive"}, {"smiles": "N=C(NN)N/N=C/c1cccc(C(=N)N)c1", "inhibition": "inactive"}]}, {"tested_on": "T-24", "assay": "Antiproliferative activity against human T24 bladder carcinoma cells", "assay_type": "functional, cell-based", "values": [{"smiles": "N=C(NN)N/N=C/c1cccc(C(=N)N)n1", "pIC50": 4.08}, {"smiles": "CCCCNC(=N)N/N=C/c1cccc(C(=N)N)c1", "pIC50": "< 4.57"}, {"smiles": "N=C(N)N/N=C/c1nccc(C(=N)N)n1", "pIC50": "< 3.90"}, {"smiles": "N=C(N)c1cccc(/C=N/N=C(\\N)N/N=C/c2cccc(C(=N)N)c2)c1", "pIC50": "< 4.00"}, {"smiles": "N=C(NO)N/N=C/c1cccc(C(=N)N)n1", "pIC50": 4.48}, {"smiles": "C/C(=N\\N=C(N)N)c1cccc(C(=N)N)c1", "pIC50": 3.93}, {"smiles": "N=C(N)c1cccc(-c2cccc(C(=N)N)c2)c1", "pIC50": "< 3.80"}, {"smiles": "CC(/C=N/NC(=N)N)=N\\NC(=N)N", "note": "[MITOGUAZONE]", "pIC50": 5.96}, {"smiles": "N=C(N)c1cc(-c2ccnc(C(=N)N)c2)ccn1", "pIC50": "< 3.82"}, {"smiles": "N=C(N)c1ccnc(-c2cc(C(=N)N)ccn2)c1", "pIC50": "< 3.84"}, {"smiles": "N=C(N/N=C/c1cccc(C(=N)N)n1)N/N=C/c1cccc(C(=N)N)n1", "pIC50": 4.30}, {"smiles": "N=C(N)c1cccc(-c2cccc(C(=N)N)n2)n1", "pIC50": 5.96}, {"smiles": "N=C(NO)N/N=C/c1cccc(C(=N)N)c1", "pIC50": 4.85}, {"smiles": "N=C(N)N/N=C/c1cccc(C(N)=O)c1", "pIC50": "< 3.74"}, {"smiles": "N=C(N)N/N=C/c1ccnc(C(=N)N)n1", "pIC50": "< 3.77"}, {"smiles": "CC/C(=N\\N=C(N)N)c1cccc(C(=N)N)c1", "pIC50": "< 3.82"}, {"smiles": "N=C(N)N/N=C/c1cccc(C(=N)NO)n1", "pIC50": "< 3.92"}, {"smiles": "N=C(N)c1cccc(-c2ccnc(C(=N)N)n2)c1", "pIC50": 4.17}, {"smiles": "N=C(NN)c1cccc(/C=N/N=C(N)N)n1", "pIC50": 4.22}, {"smiles": "N=C(N)N/N=C/c1ccnc(C(=N)N)c1", "pIC50": "< 3.74"}, {"smiles": "N=C(N)N/N=C/c1cccc(C(=N)N)n1", "pIC50": 5.00}, {"smiles": "N=C(N)N/N=C/c1cccc(C(=N)N)c1", "pIC50": 5.04}, {"smiles": "CCCCNC(=N)c1cccc(/C=N/N=C(N)N)c1", "pIC50": "< 4.55"}, {"smiles": "N=C(NN)N/N=C/c1cccc(C(=N)N)c1", "pIC50": 4.60}]}, {"target": "T2, Diamine oxidase [copper-containing] (Rattus norvegicus, UniProt P36633)", "T2 sequence (P36633 whole entry)": "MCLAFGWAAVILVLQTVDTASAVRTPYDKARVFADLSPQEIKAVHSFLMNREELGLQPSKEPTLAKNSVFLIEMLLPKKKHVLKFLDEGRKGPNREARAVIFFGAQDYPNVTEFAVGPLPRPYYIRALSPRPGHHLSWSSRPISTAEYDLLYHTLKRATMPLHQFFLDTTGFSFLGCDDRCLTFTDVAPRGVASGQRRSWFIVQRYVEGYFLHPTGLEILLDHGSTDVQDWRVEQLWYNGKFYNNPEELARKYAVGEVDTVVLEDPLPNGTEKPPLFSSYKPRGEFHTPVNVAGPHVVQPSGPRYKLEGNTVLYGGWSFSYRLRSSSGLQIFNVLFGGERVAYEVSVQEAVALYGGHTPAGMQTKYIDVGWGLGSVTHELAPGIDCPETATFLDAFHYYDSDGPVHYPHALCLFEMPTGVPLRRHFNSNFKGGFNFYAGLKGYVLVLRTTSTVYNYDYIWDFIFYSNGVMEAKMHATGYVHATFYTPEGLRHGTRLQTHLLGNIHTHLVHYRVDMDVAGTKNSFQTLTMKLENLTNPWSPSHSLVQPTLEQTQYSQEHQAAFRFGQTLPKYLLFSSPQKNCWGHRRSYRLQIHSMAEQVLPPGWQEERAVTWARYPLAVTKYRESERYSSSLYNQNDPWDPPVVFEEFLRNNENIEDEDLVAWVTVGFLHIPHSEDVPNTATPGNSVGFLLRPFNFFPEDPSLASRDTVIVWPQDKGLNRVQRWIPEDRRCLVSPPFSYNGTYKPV", "assay": "In vitro inhibition of Diamine oxidase (DAO) from rat small intestine.", "assay_type": "tissue-based", "values": [{"smiles": "N=C(NN)N/N=C/c1cccc(C(=N)N)n1", "pIC50": 5.78}, {"smiles": "CCCCNC(=N)N/N=C/c1cccc(C(=N)N)c1", "pIC50": 5.55}, {"smiles": "N=C(N)N/N=C/c1nccc(C(=N)N)n1", "pIC50": 5.47}, {"smiles": "N=C(N)c1cccc(/C=N/N=C(\\N)N/N=C/c2cccc(C(=N)N)c2)c1", "pIC50": 6.08}, {"smiles": "N=C(NO)N/N=C/c1cccc(C(=N)N)n1", "pIC50": 5.12}, {"smiles": "C/C(=N\\N=C(N)N)c1cccc(C(=N)N)c1", "pIC50": 5.57}, {"smiles": "CC(/C=N/NC(=N)N)=N\\NC(=N)N", "note": "[MITOGUAZONE]", "pIC50": 5.82}, {"smiles": "N=C(N)c1cc(-c2ccnc(C(=N)N)c2)ccn1", "pIC50": 4.89}, {"smiles": "N=C(N/N=C/c1cccc(C(=N)N)n1)N/N=C/c1cccc(C(=N)N)n1", "pIC50": 6.12}, {"smiles": "N=C(N)c1cccc(-c2cccc(C(=N)N)n2)n1", "pIC50": 3.62}, {"smiles": "N=C(NO)N/N=C/c1cccc(C(=N)N)c1", "pIC50": 4.70}, {"smiles": "N=C(N)N/N=C/c1cccc(C(N)=O)c1", "pIC50": "< 4.00"}, {"smiles": "N=C(N)N/N=C/c1ccnc(C(=N)N)n1", "pIC50": 5.09}, {"smiles": "CC/C(=N\\N=C(N)N)c1cccc(C(=N)N)c1", "pIC50": 4.82}, {"smiles": "N=C(N)N/N=C/c1cccc(C(=N)NO)n1", "pIC50": "< 4.00"}, {"smiles": "N=C(N)c1cccc(-c2ccnc(C(=N)N)n2)c1", "pIC50": 5.00}, {"smiles": "N=C(NN)c1cccc(/C=N/N=C(N)N)n1", "pIC50": 4.72}, {"smiles": "N=C(N)N/N=C/c1ccnc(C(=N)N)c1", "pIC50": 5.49}, {"smiles": "N=C(N)N/N=C/c1cccc(C(=N)N)n1", "pIC50": 6.06}, {"smiles": "N=C(N)N/N=C/c1cccc(C(=N)N)c1", "pIC50": 5.25}, {"smiles": "CCCCNC(=N)c1cccc(/C=N/N=C(N)N)c1", "pIC50": 5.30}, {"smiles": "N=C(NN)N/N=C/c1cccc(C(=N)N)c1", "pIC50": 6.06}]}, {"target": "T3, S-adenosylmethionine decarboxylase proenzyme (Rattus norvegicus, UniProt P17708)", "T3 sequence (P17708 whole entry)": "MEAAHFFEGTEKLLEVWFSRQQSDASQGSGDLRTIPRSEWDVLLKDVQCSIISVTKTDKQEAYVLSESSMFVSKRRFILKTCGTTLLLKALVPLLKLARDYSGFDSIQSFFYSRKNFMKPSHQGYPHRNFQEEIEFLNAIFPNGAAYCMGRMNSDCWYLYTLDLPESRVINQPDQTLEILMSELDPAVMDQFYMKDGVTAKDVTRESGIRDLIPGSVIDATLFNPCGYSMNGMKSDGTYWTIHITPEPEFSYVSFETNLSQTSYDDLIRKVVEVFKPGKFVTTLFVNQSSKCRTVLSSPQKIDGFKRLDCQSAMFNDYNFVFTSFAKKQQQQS", "assay": "Inhibitory concentration of compound against S-Adenosyl-methionine decarboxylase (SAMDC) from rat liver", "values": [{"smiles": "N=C(NN)N/N=C/c1cccc(C(=N)N)n1", "pIC50": 6.17}, {"smiles": "CCCCNC(=N)N/N=C/c1cccc(C(=N)N)c1", "pIC50": 6.80}, {"smiles": "N=C(N)N/N=C/c1nccc(C(=N)N)n1", "pIC50": 4.96}, {"smiles": "N=C(N)c1cccc(/C=N/N=C(\\N)N/N=C/c2cccc(C(=N)N)c2)c1", "pIC50": 7.21}, {"smiles": "N=C(NO)N/N=C/c1cccc(C(=N)N)n1", "pIC50": 6.62}, {"smiles": "C/C(=N\\N=C(N)N)c1cccc(C(=N)N)c1", "pIC50": 7.18}, {"smiles": "N=C(N)c1cccc(-c2cccc(C(=N)N)c2)c1", "pIC50": 6.22}, {"smiles": "N=C(N)c1cc(-c2ccnc(C(=N)N)c2)ccn1", "pIC50": 6.74}, {"smiles": "N=C(N)c1ccnc(-c2cc(C(=N)N)ccn2)c1", "pIC50": 5.51}, {"smiles": "N=C(N/N=C/c1cccc(C(=N)N)n1)N/N=C/c1cccc(C(=N)N)n1", "pIC50": 6.92}, {"smiles": "N=C(N)c1cccc(-c2cccc(C(=N)N)n2)n1", "pIC50": 8.22}, {"smiles": "N=C(NO)N/N=C/c1cccc(C(=N)N)c1", "pIC50": 7.04}, {"smiles": "N=C(N)N/N=C/c1cccc(C(N)=O)c1", "pIC50": 4.70}, {"smiles": "N=C(N)N/N=C/c1ccnc(C(=N)N)n1", "pIC50": 6.28}, {"smiles": "CC/C(=N\\N=C(N)N)c1cccc(C(=N)N)c1", "pIC50": 7.06}, {"smiles": "N=C(N)N/N=C/c1cccc(C(=N)NO)n1", "pIC50": 4.60}, {"smiles": "N=C(N)c1cccc(-c2ccnc(C(=N)N)n2)c1", "pIC50": 8.22}, {"smiles": "N=C(NN)c1cccc(/C=N/N=C(N)N)n1", "pIC50": 7.08}, {"smiles": "N=C(N)N/N=C/c1ccnc(C(=N)N)c1", "pIC50": 6.48}, {"smiles": "N=C(N)N/N=C/c1cccc(C(=N)N)n1", "pIC50": 7.05}, {"smiles": "N=C(N)N/N=C/c1cccc(C(=N)N)c1", "pIC50": 7.44}, {"smiles": "CCCCNC(=N)c1cccc(/C=N/N=C(N)N)c1", "pIC50": "< 4.30"}, {"smiles": "N=C(NN)N/N=C/c1cccc(C(=N)N)c1", "pIC50": 6.68}]}]}
